In patent US6326363A, “Methylenebisphosphonic acid derivatives” (Leiras Oy, priority 1997, dated 2001):
Structures can show the parent of a compound that is named as a salt. Where two headings read alike, the source gives them in different places.

Legend:
[1] = Enzymatic hydrolysis of prodrug molecules in 80% plasma at pH 7.40 and 37° C.; assay type: in vitro ADME; settings: pH 7.4, 37° C.; for metabolised at 1 min: 1 minute, mean ± SE, n = 3, read-out: clodronate released in the first sample (1 minute)
Description: The enzyme hydrolysis rate of prodrug molecules was determined in a plasma/buffer mixture (80%-20%) at pH 7.40 and at 37° C.
The compound to be tested was dissolved in the buffer part and, after dissolution, plasma with a temperature of 37° C. was added. The solution was stirred with a magnetic stirrer and a sample of 0.25 ml was taken from the mixture at intervals of 1-360 min (depending on the molecule to be tested), to which sample 0.25 ml methanol (denatures proteins) was added. The sample was centrifuged, the clear supernatant was evaporated to dryness, the residue was dissolved in the eluent of the HPLC method, and the remaining prodrug concentration and the amount of the clodronate formed were analysed with HPLC. From the concentrations obtained a first-order graph was drawn (the remaining prodrug amount as a function of time), wherefrom a dissociation constant and half-life (T1/2) were determined.

[2] = Distribution coefficient octanol/buffer (log P); assay type: physicochemical; settings: 1-octanol/buffer
Description: The fat-solubility of the compounds of the test was studied by determining the distribution coefficients (P) of the compounds at pH 7.4 and 2.0. The analysis were carried out in a mixture of octanol and buffer.
When the octanol/buffer method of analysis was used, 1-octanol and the phosphate buffer used (50 mM, pH 7.40, μ=0.15) were saturated with each other by stirring a mixture of these overnight. Phases were separated and a prodrug standard solution with the desired concentration was made in the buffer phase. Appropriate volumes of 1-octanol and the standard solution of phosphate buffer were mixed and the mixture was shaken vigorously for 60 min. After shaking the phases were separated and the concentration of the compound to be studied was analysed from the buffer phase before and after distribution according to the above described HPLC method. Distribution coefficient P was calculated from the following formula: [formula]
C1 =concentration of the compound to be studied before distribution
Ca =concentration of the compound to be studied after distribution
Va =volume of the buffer phase
Vo =volume of the octanol phase

[3] = Water-solubility in phosphate buffer (50 mM, pH 7.4), HPLC; assay type: physicochemical; settings: for solubility at 2 h: 50 mm phosphate buffer, aqueous buffer
Description: Clodronate and the prodrug molecules of clodronate were analysed with reverse phase/ion pair HPLC method (an isocratic program for clodronate; a gradient program for the simultaneous analysis of clodronate and a prodrug molecule), where detection of compounds was based on the measurement of light scattering caused by unevaporated compounds.
Equipment: Merck LaChrom HPLC (Merck Hitachi Ltd., Japan) Kromasil 100 RP-C8 (250×4.6 i.d., 5 μm) (Higgins Analytical Inc., USA)
Isocratic programe: methanol/ammoniumacetate buffer (3:97, pH 4.6), which contained 2.25% butylamine as ion pair reagent, flow 1.2 ml/min.
Gradient program: methanol (3%→40-60% during 1 min-6 min)/ammoniumacetate (pH 4.6), which contained 2.25% butylamine as ion pair reagent, flow 1.2 ml/min.
Detector: Sedex 55 light scattering detector (Sedere, France)
Settings: temperature of detector 70° C., pressure of evaporating gas (filtered air) 2.2 bar.
Water-solubilities of prodrug molecules were determined in phosphate buffer (50 mM, pH 7.4) at room temperature.
An excess of the compound to be tested was dissolved in about 5 ml of phosphate buffer. The suspension was stirred for 2 hours, the suspension was filtered, and the prodrug concentration of the filtrate was determined with HPLC. Water-solubility of clodronate was determined with the same method.

[4] = Chemical hydrolysis of prodrug molecules in phosphate buffer at 37° C.; assay type: physicochemical; settings: phosphate buffer 50 mM; for half-life: 50 mm phosphate buffer
Description: Chemical hydrolysis of prodrug molecules was analysed in phosphate buffer (50 mM, μ=0.15) at pH 2.0 and 7.4 and at 37° C.
The compound to be studied was dissolved in 10.0 ml of phosphate buffer. The solution was stirred for 24-1000 h in a water bath with a magnetic stirrer, and samples were taken at regular intervals and analysed with HPLC. From the results a graph of pseudo I order was drawn, where the amount of the remaining compound was shown as a function of time. From the slope (kk) of the linear graph so obtained, a dissociation constant k (k=2.303×-kk) was calculated, wherefrom the half-life T1/2 (T1/2 =0.693/k) of the prodrug molecule under the circumstances in question was calculated.

[5] = system: PTH-induced bone resorption in mouse calvaria; test: Inhibition of PTH-induced bone resorption in mouse calvaria in vitro; assay type: cell-based; settings: 72 h, 100 μmol/l, PTH 10 nM, cultured for three days, read-out: Inhibition of resorption 100 (PTH-x)/PTH
Description: Newborn mice were labeled by a subcutaneous injection of ^45 Ca four days prior to sacrifice. Calvarial bone fragments were microdissected from the parietal bones, preincubated in culture medium with indomethacin, washed and then cultured for three days with and without a bisphosphonate prodrug. Bone resorption was stimulated by parathyroid hormone (PTH, 10 nM), and the effect on this stimulated resorption was measured. As presented in Table 4, an inhibition of resorption by the compounds was shown. The inhibition by the bisphosphonate prodrugs was even higher than with the parent drug.

[6] = Absorption and hydrolysis in vivo, oral bioavailability in fasted rats; settings: rat, 100 umol/kg, urine 72 hours, compared with intravenous, parent drug analyzed
Description: Absorption and hydrolysis of the compounds in vivo was studied in fasted rats. Absorption was determined from the total amount excreted into urine during 72 hours after administration. For the determination of oral bioavailability excreted amount after oral administration was compared with that after intravenous administration. The urine samples were analyzed for the parent drug with mass-selective or nitrogen phosphorous-detection gas chromatography. The results presented in Table 5 show increased bioavailability of the bisphosphonate prodrugs compared with that of the parent compound.

[7] = pH 2.0, read-out: Log P (pH 2.0)
[8] = 1-octanol/phosphate buffer, pH 7.4, read-out: Log P (pH 7.4)
[9] = μ=0.15, pH 7.4, 37° C., read-out: T1/2 pH 7.4 (converted)
[10] = phosphate buffer 50 mM, pH 7.4, room temperature
[11] = μ=0.15, pH 2.0, 37° C., read-out: T1/2 pH 2.0 (converted)

Structure (SMILES)	logD [2, 7]	logD [2, 8]	metabolised at 1 min [1] [%]	solubility at 2 h [3, 10] [mg/mL]	half-life [4, 11] [h]	inhibition at 100 µM [5] [%]	other results
CC(C)(C)C(=O)OP(=O)(O)C(Cl)(Cl)P(=O)(O)OC(=O)C(C)(C)C [Pivalyl acid dianhydride (Ex. 7), P,P'-Di(pivaloyl)(dichloromethylene)bisphosphonate disodium salt]	-2	-2.3	–	–	–	–	T1/2 Plasma [1]: 3.3 ± 0.6 h; Water-solubility ([3]; phosphate buffer 50 mM, pH 7.4, room temperature, 120 min): 23,5 mg/ml; half-life [4, 9]: 790 h; T1/2 pH 2.0 ([4]; μ=0.15, pH 2.0, 37° C.): 8.6 h
CCCCCCCCCCCCCC(=O)OP(=O)(O)C(Cl)(Cl)P(=O)(O)OC(=O)CCCCCCCCCCCCC [Compound 3, P,P'-di(tetradecanoyl)(dichoromethylene)bisphosphonate disodium salt]	–	–	–	–	–	50.5	–
O=P([O-])([O-])C(Cl)(Cl)P(=O)(O)O.[Na+].[Na+] [Clodronate, dichloromethylenebisphosphonic acid disodium salt, reference compound]	–	–	–	397	–	43.2	bioavailability at 72 h [6]: 2.17%; Water-solubility (in words) ([3]; reason why the distribution coefficient cannot be determined): extremely water-soluble
CCCCCCCCCCCCCCCCCC(=O)OP(=O)(O)C(Cl)(Cl)P(=O)(O)OC(=O)CCCCCCCCCCCCCCCCC [Compound 4, P,P'-di(octadecanoyl)(dichloromethylene)bisphosphonate disodium salt]	–	–	–	–	–	53.9	–
CC(C)C(=O)OP(=O)(O)C(Cl)(Cl)P(=O)(O)OC(=O)C(C)C [Compound 2, P,P-di(isobutyroyl)(dichloromethylene)bisphosphonate disodium salt]	–	–	–	–	–	64.8	–

Continued, in another order:

logD [2, 7]	logD [2, 8]	metabolised at 1 min [1] [%]	solubility at 2 h [3, 10] [mg/mL]	half-life [4, 11] [h]	Structure (SMILES)	inhibition at 100 µM [5] [%]	other results
-1.5	-2.4	91.4 ± 8.6	6	286	O=C(OP(=O)(O)C(Cl)(Cl)P(=O)(O)OC(=O)c1ccccc1)c1ccccc1 [Benzoe acid dianhydride (Ex. 7), P,P'-Di(benzoyl)(dichloromethylene)bisphosphonate disodium salt]	–	half-life [4, 9]: 235 h
-1.9	-2.4	98 ± 6.9	172	0.8	CCCC(=O)OP(=O)(O)C(Cl)(Cl)P(=O)(O)OC(=O)CCC [Butanoic acid dianhydride (Ex. 7), P,P'-Dibutyroyl(dichloromethylene)bisphosphonate disodium salt]	–	T1/2 pH 7.4 ([4]; μ=0.15, pH 7.4, 37° C.): 31.3 h
-1.4	-2.2	102 ± 1.2	190	0.7	CC(=O)OP(=O)(O)C(Cl)(Cl)P(=O)(O)OC(C)=O [Compound 1, P,P'-Diacetyl(dichloromethylene)bisphosphonate disodium salt]	48.7	T1/2 pH 7.4 ([4]; μ=0.15, pH 7.4, 37° C.): 15.2 h
